Measurements taken from patent US12410156B2, “Kinase inhibitors” (Insilico Medicine IP Limited, priority 2019, dated 2025).

Legend:
[1] = system: Human hepatic stellate cell LX-2; assay: LX-2 fibrosis assay, collagen production (Western blot); assay type: cell-based; settings: LX-2 cells, stimulated with 4 ng/mL TGF-b for 48 hours
Experimental: Human hepatic stellate cell LX-2 were grown in DMEM (Invitrogen, 11960) supplied with 1% MEM Non-Essential Amino Acids (Invitrogen, 11140-050), 2% fetal bovine serum (Hyclone, SV30087.03), Penicillin (100 U/mL)-streptomycin (100 μg/mL) (Millipore, TMS-AB2-C) and 2 mM L-Glutamine (Invitrogen, 25030-001). After the cells grew in 12-well plates for 24 hours, the cell culture medium was changed to the same as above except using 0.4% fetal bovine serum. After 20 hour growth in the reduced serum medium, the cells were treated with indicated doses of compounds for 30 minutes. Subsequently, the cells were stimulated with 4 ng/mL TGF-b (R&D Systems, 240-B-002) for 48 hours. The cells were rinsed twice with DPBS before being harvested with 100 μL RIPA buffer (Sigma, R0278) supplemented with protease inhibitor cocktail (Roche, 04693132001) at 4° C. The total protein in each sample was quantified using BCA Protein Assay Kit (Pierce™, 23227) and equal amount of total protein of each sample was subject to Western blot analysis. Antibodies used were mouse anti-α-Actin (SPM332) ([…]), mouse anti-CTGF (E5) (sc-365970), and mouse anti-collagen α1 (3G3) (sc-293182), from Santa Cruz Biotechnologies; and mouse anti-GAPDH (6C5) (EMD Millipore, MAB374).

[2] = target: MAP4K4 (h) (Homo sapiens, UniProt O95819); assay: MAP4K4 kinase assay (radiometric 33P-ATP filter assay); assay type: biochemical; settings: read-out: MAP4K4_IC50
Experimental: (§1) (specific activity and concentration as required). The reaction is initiated by the addition of the Mg/ATP mix. After incubation for 40 minutes at room temperature, the reaction is stopped by the addition of phosphoric acid to a concentration of 0.5%.

[3] = target: T1, TNIK (Homo sapiens, UniProt Q9UKE5); assay: TNIK enzymatic assay (radiometric 33P-ATP filter assay); assay type: biochemical; settings: second table (TNIK, MAP4K4, Collagen Production Data); read-out: TNIK_IC50
T1 construct: purchased Eurofins (Kinase Profiler service protocol)
Experimental: as §1, with “The compounds were studied for function as TNIK inhibitors to generate the data of Table 1. […] (specific” for “(specific”

Sequence of MAP4K4 (h) (O95819 whole entry): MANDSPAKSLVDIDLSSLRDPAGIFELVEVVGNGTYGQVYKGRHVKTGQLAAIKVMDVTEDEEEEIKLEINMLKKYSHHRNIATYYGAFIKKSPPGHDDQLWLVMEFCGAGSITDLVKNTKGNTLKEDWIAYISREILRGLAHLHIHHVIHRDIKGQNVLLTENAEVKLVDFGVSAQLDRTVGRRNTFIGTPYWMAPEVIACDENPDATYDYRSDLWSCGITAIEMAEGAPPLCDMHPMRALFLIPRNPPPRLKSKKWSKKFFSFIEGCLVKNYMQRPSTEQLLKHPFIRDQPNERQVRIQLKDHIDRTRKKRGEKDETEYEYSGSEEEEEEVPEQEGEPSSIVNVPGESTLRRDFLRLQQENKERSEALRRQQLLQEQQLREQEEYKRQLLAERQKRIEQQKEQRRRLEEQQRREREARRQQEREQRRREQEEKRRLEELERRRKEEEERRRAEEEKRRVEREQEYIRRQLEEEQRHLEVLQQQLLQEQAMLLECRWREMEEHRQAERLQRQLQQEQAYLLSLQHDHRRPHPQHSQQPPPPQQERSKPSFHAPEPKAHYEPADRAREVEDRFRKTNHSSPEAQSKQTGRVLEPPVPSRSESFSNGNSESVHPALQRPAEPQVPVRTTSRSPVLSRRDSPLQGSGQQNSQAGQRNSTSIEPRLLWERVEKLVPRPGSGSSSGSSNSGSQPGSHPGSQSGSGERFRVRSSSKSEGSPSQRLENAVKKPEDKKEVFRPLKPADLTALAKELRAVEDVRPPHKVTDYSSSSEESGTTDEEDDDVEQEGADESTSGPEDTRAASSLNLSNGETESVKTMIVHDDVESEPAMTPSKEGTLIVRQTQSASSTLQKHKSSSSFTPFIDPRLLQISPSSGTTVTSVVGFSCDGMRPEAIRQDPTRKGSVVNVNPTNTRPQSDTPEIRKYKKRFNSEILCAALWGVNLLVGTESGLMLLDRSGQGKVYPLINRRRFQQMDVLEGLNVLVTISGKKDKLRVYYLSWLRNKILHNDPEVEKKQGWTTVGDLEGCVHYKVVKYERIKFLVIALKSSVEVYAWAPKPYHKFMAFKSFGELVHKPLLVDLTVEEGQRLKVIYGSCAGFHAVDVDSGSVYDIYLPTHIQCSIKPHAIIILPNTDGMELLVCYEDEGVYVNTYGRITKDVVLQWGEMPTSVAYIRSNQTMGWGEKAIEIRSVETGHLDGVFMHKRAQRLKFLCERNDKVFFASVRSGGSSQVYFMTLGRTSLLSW
T1 sequence (Q9UKE5 whole entry): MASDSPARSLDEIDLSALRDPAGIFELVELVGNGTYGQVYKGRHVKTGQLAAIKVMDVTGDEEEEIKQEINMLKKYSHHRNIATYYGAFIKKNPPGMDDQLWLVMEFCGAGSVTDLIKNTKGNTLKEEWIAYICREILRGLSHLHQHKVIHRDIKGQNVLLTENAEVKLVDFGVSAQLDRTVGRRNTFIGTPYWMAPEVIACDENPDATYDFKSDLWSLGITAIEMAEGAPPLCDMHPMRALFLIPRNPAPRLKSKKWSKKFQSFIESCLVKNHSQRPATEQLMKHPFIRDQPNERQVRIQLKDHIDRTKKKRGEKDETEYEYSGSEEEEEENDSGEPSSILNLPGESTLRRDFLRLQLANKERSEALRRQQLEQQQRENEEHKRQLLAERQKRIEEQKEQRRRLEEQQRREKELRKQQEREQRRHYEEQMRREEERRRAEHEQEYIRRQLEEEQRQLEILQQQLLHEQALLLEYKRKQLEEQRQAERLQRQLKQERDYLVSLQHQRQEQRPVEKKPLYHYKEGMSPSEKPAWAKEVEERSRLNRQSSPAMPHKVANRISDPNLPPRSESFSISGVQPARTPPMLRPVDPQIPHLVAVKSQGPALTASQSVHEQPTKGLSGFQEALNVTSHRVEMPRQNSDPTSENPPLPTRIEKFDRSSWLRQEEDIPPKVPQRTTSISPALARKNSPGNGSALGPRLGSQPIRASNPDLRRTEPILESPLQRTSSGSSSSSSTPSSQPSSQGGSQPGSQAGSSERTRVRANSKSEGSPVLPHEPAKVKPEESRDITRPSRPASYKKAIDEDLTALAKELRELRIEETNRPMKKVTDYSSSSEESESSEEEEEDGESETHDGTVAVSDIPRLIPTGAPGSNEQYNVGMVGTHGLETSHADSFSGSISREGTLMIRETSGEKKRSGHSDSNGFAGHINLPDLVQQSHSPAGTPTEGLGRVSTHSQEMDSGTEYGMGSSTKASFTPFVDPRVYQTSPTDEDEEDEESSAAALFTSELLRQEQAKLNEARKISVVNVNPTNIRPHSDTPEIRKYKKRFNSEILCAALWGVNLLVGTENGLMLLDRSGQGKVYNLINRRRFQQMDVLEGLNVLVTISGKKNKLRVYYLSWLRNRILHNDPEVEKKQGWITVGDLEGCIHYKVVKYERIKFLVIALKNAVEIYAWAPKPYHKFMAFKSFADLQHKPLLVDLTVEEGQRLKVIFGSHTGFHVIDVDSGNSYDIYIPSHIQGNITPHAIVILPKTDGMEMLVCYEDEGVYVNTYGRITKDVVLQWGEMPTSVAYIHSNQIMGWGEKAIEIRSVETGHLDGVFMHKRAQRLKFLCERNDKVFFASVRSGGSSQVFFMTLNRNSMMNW

**Q.** For `CN1CCN(c2ccc(NC(=O)c3ccc(-c4c(-c5ccc(F)cc5)ncn4C4CCCC4)o3)c(F)c2)CC1` [Compound A-52, 4-(4-(5-(1-cyclopentyl-4-(4-fluorophenyl)-1H-imidazol-5-yl)furan-2-carboxamido)-3-fluorophenyl)-1-methylpiperazin-1-ium], which EC50 [1] is on record?
**A.** The EC50 was 0.042 µM.

**Q.** With `O=C(Nc1ccncc1F)c1ccc(-c2c(-c3ccc(F)cc3)ncn2[C@@H]2COC[C@H]2F)o1` (racemic) [Compound A-54, rac-5-(4-(4-fluorophenyl)-1-((3R,4S)-4-fluorotetrahydrofuran-3-yl)-1H-imidazol-5-yl)-N-(3-fluoropyridin-4-yl)furan-2-carboxamide] as the compound, how does the EC50 ([1]; LX-2, 48 h) read?
**A.** The EC50 was 0.983 µM.

**Q.** And the IC50 [2]?
**A.** Its IC50 is 36.6 nM.

**Q.** And the IC50 [3]?
**A.** The IC50 was 60.7 nM.

**Q.** With `O=C(Nc1ccncc1F)c1ccc(-c2c(-c3ccc(F)cc3)ncn2C2COCC2F)o1` (centres unmarked) [Compound A-53, 5-(4-(4-fluorophenyl)-1-(4-fluorotetrahydrofuran-3-yl)-1H-imidazol-5-yl)-N-(3-fluoropyridin-4-yl)furan-2-carboxamide] as the compound, how does the EC50 ([1]; LX-2, 48 h) read?
**A.** Its EC50 is 1.98 µM.
